test system: human platelet rich plasma; test: Inhibition of human platelet aggregation, 96-well assay; format: cell-based; settings: ADP-induced aggregation, human platelet rich plasma, 96-well plates, AUC of absorbance over 20 minutes
Description: Inhibition of Human Platelet Aggregation
Alternatively to a binding assay which measures a compound's ability to bind to the P2Y12 receptor, the effect on cellular function was also determined. This ability of the compound was evaluated in two platelet aggregation assays: in 96-well plates and with the “Born”-method using single cuvettes.
Whole blood was collected from healthy volunteers using 20 ml syringes containing 2 ml of ACD-A Aqua-Citrat-Dextrose-A, Fresenius). The anticoagulated whole blood was transferred into 15 ml polypropylene conical tubes (10 ml per tube). The tubes were centrifuged for 15 minutes at 150×g at RT without using the centrifuge brake. This procedure leads to a pellet of cellular components and a supernatant of platelet rich plasma (PRP). The PRP layer was collected from each tube and pooled for each donor. To avoid carry over of cellular components following centrifugation, approximately 5 ml of PRP was left in the tube. The platelet concentration was determined using a Coulter Counter.
The 15 ml tubes containing the pellet of cellular components were centrifuged again for 10 minutes at 1940×g. This pelleted out most particulate blood constituents remaining, leaving a layer of Platelet Poor Plasma (PPP). The PPP was collected for each donor. The PRP layer, previously set aside, was diluted with PPP to a final concentration of approximately 3×E8 platelets/ml with the PPP.
The human platelet aggregation assay is performed in 96-well plates using a microtiter plate reader (SpectraMax Plus 384 with SoftMax Pro software from Molecular Devices). In the plate 15 μl of test compound at 10× final concentration in NaCl is mixed with 120 μl fresh PRP and incubated for 5 minutes. Following that incubation period, 15 μl of 40 μM ADP is added to the reaction mix. This addition of ADP is sufficient to induce aggregation in the absence of an inhibitor. The plates are then transferred to the microplate reader and aggregation is measured over 20 minutes. The instrument settings include:
Absorbance at 650 nm, run time 20 minutes with readings in 1-minute intervals and 50 seconds shaking between readings all performed at 37° C.

Row | Molecule | IC50 [nM]
1 | 4-[2-({5-[2-((S)-2-Cyclobutylcarbamoyl-pyrrolidin-1-yl)-2-oxo-ethoxy]-1-phenyl-1H-pyrazole-3-carbonyl}-amino)-acetyl]-piperazine-1-carboxylic acid 2-methoxy-ethyl ester [Example 254] | 750
2 | CCOC(=O)N1CCN(C(=O)[C@H](CCC(=O)O)NC(=O)c2cc(OCC(=O)N3CCC[C@H]3C(=O)NC)n(-c3ccccc3)n2)CC1 [Example 7, 4-{(S)-4-Carboxy-2-[(5-{2-[(S)-2-(2-methylcarbamoyl)-pyrrolidin-1-yl]-2-oxo-ethoxy}-1-phenyl-1H-pyrazole-3-carbonyl)-amino]-butyryl}-piperazine-1-carboxylic acid ethyl ester] | 1460

same assay, conditions: Homo sapiens, Platelet, 20 min

Row | IC50 [nM] | Molecule
3 | 470 | CCNC(=O)[C@@H]1CCCN1C(=O)COc1cc(C(=O)N[C@@H](CCC(=O)O)C(=O)N2CCN(C(=O)OCC)CC2)nn1-c1ccccc1 [Example 8, 4-{(S)-4-Carboxy-2-[(5-{2-[(S)-2-ethylcarbamoyl-pyrrolidin-1-yl]-2-oxo-ethoxy}-1-phenyl-1H-pyrazole-3-carbonyl)-amino]-butyryl}-piperazine-1-carboxylic acid ethyl ester]
4 | 600 | CCOC(=O)N1CCN(C(=O)[C@H](CCC(=O)O)NC(=O)c2cc(OCC(=O)N3CCC[C@H]3C(=O)N3CCCC3)n(-c3ccccc3)n2)CC1 [Example 17, 4-{(S)-4-Carboxy-2-[(5-{2-oxo-2-[(S)-2-(pyrrolidine-1-carbonyl)-pyrrolidin-1-yl]-ethoxy}-1-phenyl-1H-pyrazole-3-carbonyl)-amino]-butyryl}-piperazine-1-carboxylic acid ethyl ester]
5 | 210 | CCOC(=O)N1CCN(C(=O)[C@H](CCC(=O)O)NC(=O)c2cc(OCC(=O)N3CCC[C@H]3C(=O)N3CCC(F)(F)CC3)n(-c3ccccc3)n2)CC1 [Example 19, 4-{(S)-4-Carboxy-2-[(5-{2-[(S)-2-(4,4-difluoro-piperidine-1-carbonyl)-pyrrolidin-1-yl]-2-oxo-ethoxy}-1-phenyl-1H-pyrazole-3-carbonyl)-amino]-butyryl}-piperazine-1-carboxylic acid ethyl ester]
6 | 220 | CCOC(=O)N1CCN(C(=O)[C@H](CCC(=O)O)NC(=O)c2cc(OCC(=O)N3CCC[C@H]3C(=O)N(C)C3CCC3)n(-c3ccccc3)n2)CC1 [Example 22, 4-{(S)-4-Carboxy-2-[(5-{2-[(S)-2-(cyclobutyl-methyl-carbamoyl)-pyrrolidin-1-yl]-2-oxo-ethoxy}-1-phenyl-1H-pyrazole-3-carbonyl)-amino]-butyryl}-piperazine-1-carboxylic acid ethyl ester]
7 | 760 | CCOC(=O)N1CCN(C(=O)[C@H](CCC(=O)O)NC(=O)c2cc(OCC(=O)N3CCN(C(C)=O)CC3)n(-c3ccccc3)n2)CC1 [Example 27, 4-[(S)-2-({5-[2-(4-Acetyl-piperazin-1-yl)-2-oxo-ethoxy]-1-phenyl-1H-pyrazole-3-carbonyl}-amino)-4-carboxy-butyryl]-piperazine-1-carboxylic acid ethyl ester]
8 | 860 | CCOC(=O)N1CCN(C(=O)[C@H](CCC(=O)O)NC(=O)c2cc(OCC(=O)N3CC[C@H]3C(=O)NC3CC3)n(-c3ccccc3)n2)CC1 [Example 40, 4-[(S)-4-Carboxy-2-({5-[2-((S)-2-cyclopropylcarbamoyl-azetidin-1-yl)-2-oxo-ethoxy]-1-phenyl-1H-pyrazole-3-carbonyl}-amino)-butyryl]-piperazine-1-carboxylic acid ethyl ester]
9 | 60 | CCOC(=O)N1CCN(C(=O)[C@H](CC(=O)O)NC(=O)c2cc(OCC(=O)N3CCC[C@H]3C(=O)NC3CC3)n(-c3ccccc3)n2)CC1 [Example 56, 4-[(S)-3-Carboxy-2-({5-[2-((S)-2-cyclopropylcarbamoyl-pyrrolidin-1-yl)-2-oxo-ethoxy]-1-phenyl-1H-pyrazole-3-carbonyl}-amino)-propionyl]-piperazine-1-carboxylic acid ethyl ester]
